Test [1] relates to human melanoma cells (CRL-1872). Put plainly: Cell morphology observation. In kind it is cell-based. Here is the method:
(§1) Human melanoma cells (CRL-1872) were purchased from ATCC, Rocksville, MD, USA. Cells were cultured in a complete growth medium, which consisted of Minimum Essential Medium (MEM) (Gibco, Waltham, MA, USA) supplemented with 10% fetal bovine serum (FBS) (Invitrogen, Waltham, MA, USA) and 1% antibiotic–antimycotic (Invitrogen, Waltham, MA, USA), in a humidified incubator at 37 °C, equilibrated with 5% CO2. Cells were subcultured every two days until reaching confluency in T25 flask (TPP, Trasadingen, Switzerland) before being seeded in designated plates for specific experiment objectives.
(§2) Cells were seeded at 80,000 cells per well in a 24-well plate containing 400 µL of complete growth medium. After 24 h of culture, the medium was removed, washed once with PBS, replaced with serum-free medium and left to culture for another 16 h. The medium was removed and replaced with corresponding treatment medium, each in triplicates; 10 nM and 50 nM of Sh-EGFl-1, 10 nM and 50 nM of rhEGF were used as a positive control and serum-free medium was used as a negative control. Cells were cultured in a single plate to track their growth every 24 h during the four days of experiment. […] A crossed line was made at the bottom of each well to mark the four cell-counting areas that were recorded daily using a microscope digital camera. Cells were counted manually based on the images visualized using ImageJ version 2.0.

The next test deals with human EGFR. Put plainly: Ligand binding assay with biotinylated peptide (NeutrAvidin-HRP/ABTS, 405 nm). To be noted: for Relative binding: melanoma cells, 1 h at 37 °C, (OD x nM - OD 0 nM)/OD 0 nM at 405 nm, triplicates; for optimum concentration for binding to EGFR: concentrations tested 10, 50 and 500 nM. Here is the method: An experiment was performed to test the ability of Sh-EGFl-1 peptide interaction with human receptor. Ligand binding assay, adapted from King et al. was performed with modifications using human cells. Both Sh-EGFl-1 and rhEGF were first conjugated with N-hydroxysuccinimidobiotin (NHS-biotin) and were added to human cells. Any binding of peptide to EGFR was detected through the reaction of NeutrAvidin conjugated with horseradish peroxidase enzyme and 2,2′-azino-bis-3-ethylbenzothiazoline-6-sulfonic acid (ABTS) as substrate.
A short peptide sequence derived from the protein translation of Contig 498513, was submitted to order. The 4.9 kDa Sh-EGFl-1 peptide (H-NINECFSSPCENQGICQDEIDGYNCVCQPGFTGTHCESSMLNHVI-OH) was synthesized by Mimotopes Pty. Ltd., Australia through a Fmoc solid-phase peptide chemistry method. A master stock concentration of 1 mg/mL was prepared by diluting lyophilized peptide with PBS buffer pH 7.4. Recombinant human EGF (rhEGF) (H-MNSDSECPLSHDGYCLHDGVCMYIEALDKYACNCVVGYIGERCQYRDLKWWELR-OH) was purchased from Thermo Scientific. For the cell proliferation assay and morphology observation experiments, peptides were added fresh into the serum-free growth medium to concentrations of 10 nM and 50 nM. For the binding affinity assay experiment, biotinylation of Sh-EGFl-1 and rhEGF peptides with NHS–biotin (Sigma Aldrich, Burlington, MA, USA) was performed according to the manufacturer’s instructions. The diluted peptides in PBS pH 7.4 were changed into carbonate buffer 0.1 M carbonate buffer pH 9.5 (0.07 M sodium bicarbonate, 0.03 M sodium carbonate) for an optimal biotinylation environment. A 10 X volume of cold acetone was added to the peptides and vortexed for 15 s. The mixture was incubated for 30 min at −20 °C before being centrifuged at 16,100× g for 24 min at 4 °C. The supernatant was discarded and the pellet was air-dried and fully dissolved in carbonate buffer pH 9.5. A total of 20 mg/mL of NHS–biotin was prepared in 1 mL DMSO. A volume of 0.13 µL and 0.1 µL of NHS–biotin was added to the Sh-EGFl-1 and rhEGF peptides, respectively. Both reaction mixtures were vortexed for a while and incubated in a thermoblock with 400 rpm shaking speed for 4 h at room temperature. Any unattached biotin molecules were sieved out using a PD-10 desalting column containing Sephadex G-25 medium (GE Life Sciences, Chicago, IL, USA). PBS buffer pH 7.4 was used as eluent to collect the conjugated peptides out from the column. The concentration of the biotin-conjugated peptides was determined using a NanoDrop spectrophotometer (Thermo Scientific, Waltham, MA, USA) and BCA assay.
Melanoma cells were seeded at 90% confluency in a 96-well plate and cultured in a humidified incubator at 37 °C, equilibrated with 5% CO2 until the next day. When all cells were attached to the surface, the plate was placed on ice for a while to reduce the protein metabolism rate, so the cells were not easily detached. The medium was removed and cells were washed twice using 200 µL of cold PBS buffer. A volume of 100 µL cold formalin was added to the cells to enhance cell attachment to the surface. The plate was placed on ice for the first 5 min, then continued for another 15 min incubation at room temperature. Cells were washed twice using 200 µL of cold PBS. A total of 100 µL of melanoma growth medium (MEM basal medium and 3% FBS) was added and cells were incubated at 37 °C for 30 min. The medium was discarded and replaced with 100 µL of treatment medium (MEM basal medium supplemented with 0.1% BSA, 200 mM HEPES buffer and Sh-EGFl-1 and rhEGF at concentrations of 10, 50 and 500 nM respectively). Cells were incubated at 37 °C for 1 h. The medium was discarded, and cells were washed twice using 200 µL cold PBS and 0.3 M NaCl. A total of 100 µL horseradish peroxidase (HRP) conjugated with NeutrAvidin solution (Thermo Scientific, Waltham, MA, USA) was added with a concentration of 1:10,000 onto cells and incubated at 37 °C for 1 h. […]

Test [2] relates to human melanoma cells (CRL-1872). Put plainly: Cell proliferation assay (cell counting). In kind it is cell-based. To be noted: for Average cell number: average over 0, 24, 48, 72 and 96 h; for number of cells vs serum-free medium: four days, triplicates; for duration of temporary increment of cell numbers: cell numbers dropped drastically after the medium change. Here is the method: as §1, §2

Setting [3] is: 50 nM, recovery from serum starvation.

“And” between values parts separate entries of the source, which are not always exact repeats. Equal values may be shown once. “Also recorded” adds a separate entry of the source.

For the substance “H-MNSDSECPLSHDGYCLHDGVCMYIEALDKYACNCVVGYIGERCQYRDLKWWELR-OH (disulfide) [rhEGF, Recombinant human EGF purchased from Thermo Scientific, reference compound]”, the “cell morphology / attachment” value in test [1] (setting [3]) is listed as “better recovery as the cells were elongated when they attached to the flask surface”. Also, the Relative binding in the test with human EGFR (10 nM) was 12%; in the test with human EGFR (50 nM), 4% and 3.62%; in the test on human EGFR (500 nM), 7.57%. Also, the “optimum concentration for binding to EGFR” value with human EGFR is given as 10 nM. In addition, the Average cell numbers in test [2] (0 h, 10 nM) came to 2115; in test [2] (0 h, 50 nM), 1331; in test [2] (24 h, 10 nM), 712; in test [2] (24 h, 50 nM), 1643; in test [2] (48 h, 10 nM), 399; in test [2] (48 h, 50 nM), 1741. The Average cell numbers in test [2] (72 h, 10 nM) stood at 497; in test [2] (72 h, 50 nM), 663; in test [2] (96 h, 10 nM), 339; in test [2] (96 h, 50 nM), 438. The Average cell number in test [2] (10 nM) was 810; in test [2] (50 nM), 1166. Besides, in test [2] (50 nM), the “number of cells vs serum-free medium” value is given as “significantly higher”. Moreover, the “duration of temporary increment of cell numbers” value in test [2] (50 nM) is reported as 48 h.
As for “H-NINECFSSPCENQGICQDEIDGYNCVCQPGFTGTHCESSMLNHVI-OH (disulfide) [Sh-EGFl-1, 45 amino acid EGF-like peptide from Stichopus horrens contig 498513, synthesized by Fmoc solid-phase peptide chemistry]”, the “cell morphology / attachment” value in test [1] (10 nM, recovery from serum starvation and after medium change at 48 h) was “better recovery as the cells were elongated when they attached to the flask surface; also recorded: most of the cells to lose attachment from the flask except in the presence of 10 nM Sh-EGFl-1”; in test [1] (setting [3]), “better recovery as the cells were elongated when they attached to the flask surface”. Further, the Relative binding in the test with human EGFR (10 nM) was 5%; in the test with human EGFR (50 nM) it was -0.68%; in the test with human EGFR (500 nM), ~10% and 10%. In addition, in the test on human EGFR, the “optimum concentration for binding to EGFR” value is 500 nM. The Average cell numbers in test [2] (0 h, 10 nM) is on record as 1781; in test [2] (0 h, 50 nM), 1382; in test [2] (24 h, 10 nM) it was 1413; in test [2] (24 h, 50 nM), 1637; in test [2] (48 h, 10 nM), 1559; in test [2] (48 h, 50 nM), 1753. Further, the Average cell numbers was found to be 1674 in test [2] (72 h, 10 nM); 1094 in test [2] (72 h, 50 nM); 1816 in test [2] (96 h, 10 nM); 862 in test [2] (96 h, 50 nM). The “number of cells vs serum-free medium” value in test [2] (10 nM) was “not significantly different compared with the serum-free treatment”; in test [2] (50 nM), “significantly higher”. In addition, the “cell number over time” value in test [2] (10 nM, until day 4) was “increased numbers until the end of the experiment on day 4”. Also, the “duration of temporary increment of cell numbers” value in test [2] (50 nM) came to 48 h. In addition, the human cell growth result in test [2] (lower concentration, cell proliferation assay) is given as “significantly improved”. In addition, the “cell adherence, survival and proliferation” value in test [2] (melanoma cells) was “cells are able to maintain their adherent properties, as well as survive and proliferate, albeit rather slowly”.

The values above are taken from article PMC9605497, “Potential of Epidermal Growth Factor-like Peptide from the Sea Cucumber Stichopus horrens to Increase the Growth of Human Cells: In Silico Molecular Docking Approach” (Marine Drugs, 2022).
